Reference: publication PMC5371550, “GABAB receptor attenuation of GABAA currents in neurons of the mammalian central nervous system” (Physiological Reports, 2017)

Assays:
[1] = system: T1, α-subunit containing GABAA receptor (GABAAR) from human amygdala; assay type: cell-based; conditions: antagonist against 50 μmol/L GABA; pH 7.4, room temperature
T1 construct: gene GABRA1

[2] = system: T1, α-subunit containing GABAA receptor (GABAAR) from human amygdala; conditions: agonist; -70 mV, pH 7.4, room temperature

| Structure (SMILES) | IC50 [1] | EC50 [2] |
| --- | --- | --- |
| CN1CCc2cc3c(cc2[C@H]1[C@@H]1OC(=O)c2c1ccc1c2OCO1)OCO3 [bicuculline] | 8 µM |  |
| NCc1cc(O)no1 [muscimol] |  | 45 µM |
